Test results from patent US9657081B2, “Inhibiting peptides derived from triggering receptor expressed on myeloid cells-1 (TREM-1) TREM-like transcript 1 (TLT-1) for treatment of cardiovascular diseases” (INSERM (Institut National de la Sante et de la Recherche …, priority 2013, dated 2017).

Tests used:
Assay type in all cases: in vivo
[1] = system: TREM-1; test: Rat model of myocardial permanent ischemia (myocardial infarction), physiologic parameters and micro-TEP imaging
Protocol: Adult male Wistar rats (360-380 g) were used. All rats were anaesthetized with ketamine (100 mg/kg, intramuscularly) and mechanically ventilated. After a left thoracotomy, the left coronary artery was identified and ligated with a 6-0 prolene surgical suture. LAD occlusion was confirmed by a change in myocardial color from red to white in the ischemia area (Left ventricle). The chest was closed and the skin was sutured with 6-0 silk. The animals returned to their cage where they were supervised until their complete recovery. The postoperative mortality rate of all rats was 20%.
After surgical LAD occlusion, importance of ischemic area was evaluated by micro-TEP imaging. Animals were then randomized to receive peptide (5 mg/kg) every 24 h for 5 days or placebo (vehicle).
A further evaluation was performed at 6 weeks by micro-TEP imaging and conductance catheter (Millar) in order to study the treatment effect on myocardial remodeling and myocardial function.
In all animals, approximately 70 MBq of ^18F-FDG (in a 0.3-0.5 ml volume) was injected intravenously and under a short anaesthesia (1.5-2.5% of isoflurane inhalation) 60 min prior to initiating PET recording. Recording was acquired in list mode under continuous anaesthesia by isoflurane, using a dedicated small animal PET system (Inveon, Siemens, Knoxville, Tenn., USA). The animals were positioned in the prone position and placed on a heating pad to maintain a body temperature within the normal range. The animals were connected to a standard ECG monitor by three electrodes placed on the inner surfaces of limb extremities. Recording times were 20 min for 18F emission and 6 min for 57Co transmission. The coincidence timing window was set to 3.4 ns and the energy window between 350 and 650 keV. Images were reconstructed in 16 cardiac intervals, providing a temporal resolution of 11-15 ms for common heart rate values. Under these conditions, the axial spatial resolution was less than 1.5 mm. In addition, on LV rat phantoms obtained by a stereolithography process, a precise determination of the actual cavity volumes was provided by FDG PET images above the level of 100 μl corresponding to the lower limit for the LV endsystolic volume in adult.
We finally investigated whether the modulation of the inflammatory response conferred by TREM-1- and TLT-1-derived peptides was able to translate into cardiac function improvement after a severe MI. We performed a permanent coronary artery ligation in rats before randomisation and imaging as described above.

[2] = target: T1, TREM-1 (Mus musculus, UniProt Q9JKE2); test: Atherosclerosis in ApoE-/- mouse on fat diet; conditions: apoE-/- mice, daily i.p. 100 μg/day, 4 weeks; vehicle 146736
T1 construct: endogenous in cells; host or cells: living mice (C57BL, Balb/c, ApoE-/-), in vivo
T1 sequence (Q9JKE2 21-230): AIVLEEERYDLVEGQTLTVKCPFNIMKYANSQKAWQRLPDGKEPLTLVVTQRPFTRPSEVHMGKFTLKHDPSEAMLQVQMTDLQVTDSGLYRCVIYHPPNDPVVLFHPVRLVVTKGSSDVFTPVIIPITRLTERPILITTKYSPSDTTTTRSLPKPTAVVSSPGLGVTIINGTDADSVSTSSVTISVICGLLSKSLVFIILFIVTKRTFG
Protocol: 12-week old male ApoE−/− mice were put on a fat diet (lipids 15%, cholesterol 1.25%, no cholate) and were treated by daily intraperitoneal injection of peptides (100 μg/day) or PBS. After 4 weeks of fat diet, mice were sacrificed for analysis.
Atherosclerotic plaques were stained using Red Oil and quantified in the aortic sinus. Using immunofluorescent staining and immunohistochemistry, we analyzed plaque composition. Finally, we explored the effects of peptide's treatment on monocyte recruitment in the atherosclerotic plaques using the pulse staining technique developed by Potteaux et al. Briefly, monocytes were labelled in vivo by retro-orbital i.v. injection of 1 μm Fluoresbrite green fluorescent plain microspheres diluted 1:4 in sterile PBS [Potteaux et al, 2011]. Fluorescent beads count in the lesions reflects monocyte recruitment.

[3] = target: T1, TREM-1; test: Mouse model of myocardial infarction, survival; conditions: 100 μg daily for 5 days i.p., beginning 60 min after ligation; Log-Rank p<0.01
Protocol: Adult male Balb/c mice (20-23 g) were subjected to myocardial ischemia and were randomly grouped (n=10-15 per group) to receive repeated TREM-1- and TLT-1-derived peptides (100 μg in 0.2 mL NaCl 0.9% once a day for 5 days), scrambled-LR12 (100 μg in 0.2 mL NaCl 0.9% once a day for 5 days), or 10 μg anti-TREM-1 mAb in 0.2 mL NaCl 0.9% i.p. injections. Survival was monitored over 1 wk and analyzed by Log Rank test. (There were no deaths after the 5th day). Data are representative of at least 15 different experiments.
All procedures were performed on mice male C57BL/C ranging in age from 6-8 weeks. Mice were anesthetized by an intraperitoneal injection of xylazine (60 mg/kg) and fixed in supine position. The trachea was intubated and ventilated (the tidal volume was 200 μl/25 g and the respiratory rate was 120 breaths/min). After a left thoracotomy, the left coronary artery was identified and ligated with an 8-0 prolene surgical suture at 1.0 mm distal from tip of the left auricle. LAD occlusion was confirmed by a change in myocardial color from red to white in the ischemia area (Left ventricle). The chest was closed and the skin was sutured with 6-0 silk. […]
Mice were monitored after surgery for mortality. Mice were randomized to receive or not peptides (daily ip injection for 5 days, 5 mg/kg) and monitored for survival. […]

In the case of “LQEEDAGEYGCM (listed as Homo sapiens) [TLT1-LR12]”, the Body weight ([1]; Baseline) is reported as 313 ± 51 g, the EDV ([1]; Baseline) is reported as 417 ± 92 µL and the EF ([1]; Baseline) is reported as 48 ± 9%. The ESV ([1]; Baseline) was 215 ± 62 µL, the Heart rate ([1]; Baseline) was 400 ± 26 bpm and the “MI Areas” value ([1]; Baseline) was 22 ± 11 % of LV. The “MT Areas” value ([1]; Baseline) was 54 ± 30 mm^2, the Systolic blood pressure ([1]; Baseline) was 136 ± 17 mmHg and the Body weight ([1]; Six weeks) was 426 ± 49 g. For the same sequence, the “Body weight, difference with baseline” value ([1]; Six weeks) was 113 ± 51 g, the EDV ([1]; Six weeks) was 615 ± 161 µL and the “EDV, difference with baseline” value ([1]; Six weeks) was 198 ± 95 µL. For the same sequence, the EF ([1]; Six weeks) was 50 ± 8%, the “EF, difference with baseline” value ([1]; Six weeks) was 2 ± 7% and the ESV ([1]; Six weeks) was 313 ± 128 µL. For the same sequence, the “ESV, difference with baseline” value ([1]; Six weeks) was 99 ± 80 µL, the Heart rate ([1]; Six weeks) was 393 ± 23 bpm and the “Heart rate, difference with baseline” value ([1]; Six weeks) was −8 ± 22 bpm. For the same sequence, the “MI Areas (% of LV), difference with baseline” value ([1]; Six weeks) was −6.0 ± 8.1 % of LV, the “MI Areas (mm^2), difference with baseline” value ([1]; Six weeks) was −5 ± 23 mm^2 and the Systolic blood pressure ([1]; Six weeks) was 136 ± 17 mmHg. The “Systolic blood pressure, difference with baseline” value ([1]; Six weeks) was −12 ± 26 mmHg, the “atherosclerotic lesion size in the aortic sinus (Red Oil staining)” value [2] was 103318 μm^2 and the “survival after permanent coronary artery ligation” value [3] was “All but 1 LR12-treated animals survived”.
